Data reported in US20260014147A1, “STAT6 DEGRADERS” (Gilead Sciences, Inc., priority 2024, published 2026).

biological target: T1, STAT6 (endogenous, HiBiT-tagged) in HeLa LgBiT clone 4.14 cells (Homo sapiens, UniProt P42226); assay: STAT6 Degrader Assay (HiBiT based, HeLa LgBiT clone 4.14 cells, luminescence, DC50); assay type: cell-based; conditions: DC50 provided for test compounds with >80% Emax, geometric mean, read-out: STAT6 degradation DC50
T1 construct: These cells express endogenous STAT6; host or cells: HeLa LgBiT clone 4.14
T1 sequence (P42226 1-847): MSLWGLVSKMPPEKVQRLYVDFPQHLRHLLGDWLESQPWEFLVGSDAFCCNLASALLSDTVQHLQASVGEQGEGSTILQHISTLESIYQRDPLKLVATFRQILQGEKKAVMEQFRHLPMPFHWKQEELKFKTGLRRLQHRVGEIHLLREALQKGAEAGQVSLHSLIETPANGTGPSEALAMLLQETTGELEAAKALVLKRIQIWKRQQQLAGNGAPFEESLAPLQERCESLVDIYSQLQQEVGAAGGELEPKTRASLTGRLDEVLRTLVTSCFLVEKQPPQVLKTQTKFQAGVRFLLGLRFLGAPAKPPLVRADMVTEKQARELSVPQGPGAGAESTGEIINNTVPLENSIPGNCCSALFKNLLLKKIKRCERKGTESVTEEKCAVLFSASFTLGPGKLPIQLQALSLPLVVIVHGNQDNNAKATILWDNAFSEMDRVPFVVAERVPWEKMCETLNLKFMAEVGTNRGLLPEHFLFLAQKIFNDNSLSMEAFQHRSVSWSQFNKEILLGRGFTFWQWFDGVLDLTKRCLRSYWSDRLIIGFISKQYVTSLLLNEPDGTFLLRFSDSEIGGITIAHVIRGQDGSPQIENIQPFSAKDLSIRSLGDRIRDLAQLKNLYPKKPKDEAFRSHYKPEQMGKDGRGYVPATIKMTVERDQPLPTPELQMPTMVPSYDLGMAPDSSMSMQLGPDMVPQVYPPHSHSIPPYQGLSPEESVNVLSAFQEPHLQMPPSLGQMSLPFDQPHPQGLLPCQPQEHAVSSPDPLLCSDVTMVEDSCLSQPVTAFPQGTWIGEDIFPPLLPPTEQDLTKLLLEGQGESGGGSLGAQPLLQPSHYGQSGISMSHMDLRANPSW
Method: This was a HiBit based assay. A HeLa cell line stably transfected with a small protein, LgBit (Large Bit) was obtained from Promega. These cells express endogenous STAT6. A small 11 amino acid gene sequence (HiBiT) was inserted in the STAT6 gene using CRISPR technology. Once STAT6 protein is expressed in the cells, the HiBiT sequence will bind the LgBit in the cells resulting in a functional NanoBiT protein, giving a luminescent tag to STAT6. Single cell clones were prepared and the clone 4.14 was selected for the assay based on that clone showing high luminescence, high STAT6 phosphorylation upon stimulation with IL-4, and inhibition of luminescence when cells were treated with STAT6 siRNA. HeLa LgBiT clone 4.14 cells were suspended in DMEM with 10% FCS, 1% Pen/Strep, Na-pyrovate and Hygromycin B, at a concentration of […]. 5000 cells were added pr well of a 384 well plate and 20 nL of compound was added by Echo® liquid handler. NN6394A (terfenadine, a toxic compound) was added to control wells at 50 µM concentration to establish the assay window. In these wells the cells are dead which equals 100% degradation of STAT6. After 4-24 h of incubation at 37° C. under 5% CO2/95% air, […] substrate (Nano-GLO®) was added to the wells and the plates were centrifuged and incubated for 0.5 h. The luminescence in the wells as a measure of non-degraded STAT6 was measured in a plate reader (BMG Pherastar FSX). The dose-response curves for Examples 2a2, 2t1, 2 h3, and 2r1 are shown below (where percent degradation is plotted vs. test compound concentration in M on a log-scale).

DC50 [nM] | Structure (SMILES)
38.8 | C[C@@H]1CN(c2ccc(NC3CCC(=O)NC3=O)cc2F)CCN1CC1CCN(C(=O)c2ccc(C3CCN(Cc4cc5c(-c6ccc(N)nc6)ccnc5n4C)CC3)cc2)CC1 (stereo partly drawn) [Example 2f6, 3-((4-((R)-4-((1-(4-(1-((4-(6-aminopyridin-3-yl)-1-methyl-1H-pyrrolo[2,3-b]pyridin-2-yl)-methyl)-piperidin-4-yl)benzoyl)piperidin-4-yl)methyl)-3-methylpiperazin-1-yl)-3-fluorophenyl)amino)-piperidine-2,6-dione]
6.6 | COCc1nc2cc(-c3ccnc4c3cc(CN3CCC(c5ccc(C(=O)N6CCC(CN7CCN(c8ccc(NC9CCC(=O)NC9=O)cc8F)C[C@H]7C)CC6)cc5)CC3)n4C)ccc2[nH]1 (stereo partly drawn) [Example 2f7, 3-((3-fluoro-4-((R)-4-((1-(4-(1-((4-(2-(methoxymethyl)-1H-benzo[d]imidazol-5-yl)-1-methyl-1H-pyrrolo[2,3-b]pyridin-2-yl)methyl)piperidin-4-yl)benzoyl)piperidin-4-yl)methyl)-3-methylpiperazin-1-yl)phenyl)-amino)piperidine-2,6-dione]
66.3 | Cn1c(CN2CCC(c3ccc(C(=O)N4CCC(CN5CCC(N6CCC(c7ccc(NC8CCC(=O)NC8=O)cc7F)CC6)C(F)(F)C5)CC4)cc3)CC2)cc2c(-c3ccc4[nH]ncc4c3)ccnc21 (centres unmarked) [Example 2h1, 3-((4-(1′-((1-(4-(1-((4-(1H-indazol-5-yl)-1-methyl-1H-pyrrolo[2,3-b]pyridin-2-yl)methyl)-piperidin-4-yl)benzoyl)piperidin-4-yl)methyl)-3′, 3′-difluoro-[1,4′-bipiperidin]-4-yl)-3-fluorophenyl)-amino)piperidine-2,6-dione]
133 | Cn1c(CN2CCC(c3ccc(C(=O)N4CCC(CN5CCC(N6CCC(c7ccc(NC8CCC(=O)NC8=O)cc7F)CC6)C(F)(F)C5)CC4)cc3)CC2)cc2c(-c3ccc(N)nc3)ccnc21 (centres unmarked) [Example 2h2, 3-((4-(1′-((1-(4-(1-((4-(6-aminopyridin-3-yl)-1-methyl-1H-pyrrolo[2,3-b]pyridin-2-yl)-methyl)piperidin-4-yl)benzoyl)piperidin-4-yl)methyl)-3′, 3′-difluoro-[1,4′-bipiperidin]-4-yl)-3-fluoro-phenyl)amino)piperidine-2,6-dione]
54.8 | COCc1nc2cc(-c3ccnc4c3cc(CN3CCC(c5ccc(C(=O)N6CCC(CN7CCC(N8CCC(c9ccc(NC%10CCC(=O)NC%10=O)cc9F)CC8)C(F)(F)C7)CC6)cc5)CC3)n4C)ccc2[nH]1 (centres unmarked) [Example 2h3, 3-((4-(3′, 3′-difluoro-1′-((1-(4-(1-((4-(2-(methoxymethyl)-1H-benzo[d]imidazol-5-yl)-1-methyl-1H-pyrrolo[2,3-b]pyridin-2-yl)methyl)piperidin-4-yl)benzoyl)piperidin-4-yl)methyl)-[1,4′-bipiperidin]-4-yl)-3-fluorophenyl)amino)piperidine-2,6-dione]

Second part, the molecule before the results:

Structure (SMILES) | DC50 [nM]
C[C@@H]1CN(c2ccc(NC3CCC(=O)NC3=O)cc2F)CCN1CC1CCN(C(=O)c2ccc(C3CCN(Cc4cc5c(-c6ccc7[nH]ncc7c6)ccnc5n4C)CC3)cc2)CC1 (stereo partly drawn) [Example 2f8, 3-((4-((R)-4-((1-(4-(1-((4-(1H-indazol-5-yl)-1-methyl-1H-pyrrolo[2,3-b]pyridin-2-yl)methyl)-piperidin-4-yl)benzoyl)piperidin-4-yl)methyl)-3-methylpiperazin-1-yl)-3-fluorophenyl)amino)piperidine-2,6-dione] | 19.1
C[C@@H](c1cc2c(-c3ccc(N)nc3)ccnc2n1C)N1CCC(c2ccc(C(=O)N3CCN(CC4CCN(c5ccc(NC6CCC(=O)NC6=O)cc5F)CC4)CC3)cc2)CC1 (stereo partly drawn) [Example 2g63, 3-((4-(4-((4-(4-(1-((S)-1-(4-(6-aminopyridin-3-yl)-1-methyl-1H-pyrrolo[2,3-b]pyridin-2-yl)ethyl)piperidin-4-yl)benzoyl)piperazin-1-yl)methyl)piperidin-1-yl)-3-fluorophenyl)amino)piperidine-2,6-dione] | 48.3
COCc1nc2cc(-c3ccnc4c3cc([C@H](C)N3CCC(c5ccc(C(=O)N6CCC(CN7CCN(c8ccc(NC9CCC(=O)NC9=O)cc8Cl)CC7)CC6)cc5)CC3)n4C)ccc2[nH]1 (stereo partly drawn) [Example 2i4, 3-((3-chloro-4-(4-((1-(4-(1-((S)-1-(4-(2-(methoxymethyl)-1H-benzo[d]imidazol-5-yl)-1-methyl-1H-pyrrolo[2,3-b]pyridin-2-yl)ethyl)piperidin-4-yl)benzoyl)piperidin-4-yl)methyl)piperazin-1-yl)phenyl)amino)piperidine-2,6-dione] | 7.6

same assay, conditions: Emax provided for test compounds with <80% Emax (and 2c15), geometric mean, read-out: STAT6 degradation Emax

Emax [%] | Structure (SMILES)
50 to 60 | COCc1nc2cc(-c3ccnc4c3cc(CN3CCC(c5ccc(C(=O)N6CCC(CN7CCN(c8ccc(NC9CCC(=O)NC9=O)cc8F)C[C@@H]7C)CC6)cc5)CC3)n4C)ccc2[nH]1 (stereo partly drawn) [Example 2f4, 3-((3-fluoro-4-((S)-4-((1-(4-(1-((4-(2-(methoxymethyl)-1H-benzo[d]imidazol-5-yl)-1-methyl-1H-pyrrolo[2,3-b]pyridin-2-yl)methyl)piperidin-4-yl)benzoyl)piperidin-4-yl)methyl)-3-methylpiperazin-1-yl)phenyl)-amino)piperidine-2,6-dione]
50 to 60 | C[C@H]1CN(c2ccc(NC3CCC(=O)NC3=O)cc2F)CCN1CC1CCN(C(=O)c2ccc(C3CCN(Cc4cc5c(-c6ccc7[nH]ncc7c6)ccnc5n4C)CC3)cc2)CC1 (stereo partly drawn) [Example 2f5, 3-((4-((S)-4-((1-(4-(1-((4-(1H-indazol-5-yl)-1-methyl-1H-pyrrolo[2,3-b]pyridin-2-yl)methyl)piperidin-4-yl)benzoyl)piperidin-4-yl)methyl)-3-methylpiperazin-1-yl)-3-fluorophenyl)amino)piperidine-2,6-dione]
30 to 40 | COCc1nc2cc(-c3ccnc4c3cc([C@H](C)N3CCC(c5ccc(C(=O)N6CCC(CN7CCN(c8ccc(NC9CCC(=O)NC9=O)cc8C#N)CC7)CC6)cc5)CC3)n4C)ccc2[nH]1 (stereo partly drawn) [Example 2i2, 5-((2,6-dioxopiperidin-3-yl)amino)-2-(4-((1-(4-(1-((S)-1-(4-(2-(methoxymethyl)-1H-benzo[d]-imidazol-5-yl)-1-methyl-1H-pyrrolo[2,3-b]pyridin-2-yl)ethyl)piperidin-4-yl)benzoyl)piperidin-4-yl)methyl)-piperazin-1-yl)benzonitrile]

The next lines start with the molecule.

Structure (SMILES) | Emax [%]
Cn1c(CN2CCC(c3ccc(C(=O)N4CCC(CN5CCC(n6ncc7c(NC8CCC(=O)NC8=O)cccc76)CC5)CC4)cc3)CC2)cc2c(-c3ccc4[nH]ncc4c3)ccnc21 (centres unmarked) [Example 2g1, 3-((1-(1-((1-(4-(1-((4-(1H-indazol-5-yl)-1-methyl-1H-pyrrolo[2,3-b]pyridin-2-yl)methyl)-piperidin-4-yl)benzoyl)piperidin-4-yl)methyl)piperidin-4-yl)-1H-indazol-4-yl)amino)piperidine-2,6-dione] | < 20
COc1cc(N2CCN(CC3CCN(C(=O)c4ccc(C5CCN(Cc6cc7c(-c8ccc9[nH]ncc9c8)ccnc7n6C)CC5)cc4)CC3)CC2)c(F)cc1NC1CCC(=O)NC1=O (centres unmarked) [Example 2i1, 3-((4-(4-((1-(4-(1-((4-(1H-indazol-5-yl)-1-methyl-1H-pyrrolo[2,3-b]pyridin-2-yl)methyl)-piperidin-4-yl)benzoyl)piperidin-4-yl)methyl)piperazin-1-yl)-5-fluoro-2-methoxyphenyl)amino)-piperidine-2,6-dione] | 40 to 50
C[C@@H](c1cc2c(-c3ccc(N)nc3)ccnc2n1C)N1CCC(c2ccc(C(=O)N3CCC(CN4CCN(c5ccc(NC6CCC(=O)NC6=O)cc5C#N)CC4)CC3)cc2)CC1 (stereo partly drawn) [Example 2i3, 2-(4-((1-(4-(1-((S)-1-(4-(6-aminopyridin-3-yl)-1-methyl-1H-pyrrolo[2,3-b]pyridin-2-yl)-ethyl)-piperidin-4-yl)benzoyl)piperidin-4-yl)methyl)piperazin-1-yl)-5-((2,6-dioxopiperidin-3-yl)amino)-benzonitrile] | 30 to 40
